Reference: the supplement of paper PMC10331698
± gives the standard deviation of the averaged measurements.

Legend:
Test in all cases: level (log10 ratio to DMSO vehicle control); higher = higher biomarker level / cell amount than vehicle control
[1] = compound: OCC(F)(F)C(F)(F)C(F)(F)C(F)F [1H,1H,5H-Perfluoropentanol] (in DMSO)
Description: (§1)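 BioMAP Diversity Plus panel of 12 human primary cell co-culture systems (3C, 4H, LPS, SAg, BT, BF4T, BE3C, CASM3C, HDF3CGF, KF3CT, MyoF, Mphg). Compounds were added 1 h before stimulation and left for 24 h (MyoF 48 h; BT 72 h for soluble read-outs or 6 d for IgG). Biomarkers were read by ELISA, cytotoxicity by SRB, PBMC viability and proliferation by Alamar Blue. Each well value was divided by the mean of 8 DMSO control wells on the same plate and log10 transformed; duplicate blinded samples were tested at 4 concentrations.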

[2] = compound: O=S(=O)(O)CCC(F)(F)C(F)(F)C(F)(F)C(F)(F)C(F)(F)C(F)(F)C(F)(F)C(F)(F)F [8:2 Fluorotelomer sulfonic acid] (in DMSO)
Description: as §1

[3] = compound: O=S(=O)(O)C(F)(F)C(F)(F)OC(F)(F)C(F)(F)F [Perfluoro(2-ethoxyethane)sulfonic acid] (in DMSO)
Description: as §1

[4] = compound: CO[Si](C)(CCC(F)(F)C(F)(F)C(F)(F)C(F)(F)C(F)(F)C(F)(F)F)OC [Dimethoxymethyl((perfluorohexyl)ethyl)silane] (in DMSO)
Description: as §1

[5] = compound: CN(C(=O)C(F)(F)C(F)(F)C(F)(F)F)[Si](C)(C)C [N-Methyl-N-trimethylsilylheptafluorobutyramide] (in DMSO)
Description: as §1

[6] = compound: O=C(O)C(F)(F)C(F)(F)C(F)(F)OC(F)(F)F [Perfluoro(4-methoxybutanoic) acid] (in DMSO)
Description: as §1

[7] = compound: C=C(C)C(=O)OCCC(F)(F)C(F)(F)C(F)(F)C(F)(F)C(F)(F)C(F)(F)C(F)(F)C(F)(F)F [8:2 Fluorotelomer methacrylate] (in DMSO)
Description: as §1

| Test System | level (log10) ([1]; 6700 nM) | level (log10) ([1]; 20000 nM) | level (log10) ([1]; 60000 nM) | level (log10) ([2]; 6700 nM) | level (log10) ([2]; 20000 nM) | level (log10) ([2]; 60000 nM) | level (log10) ([3]; 6700 nM) | level (log10) ([3]; 20000 nM) | level (log10) ([3]; 60000 nM) | level (log10) ([4]; 6700 nM) | level (log10) ([4]; 20000 nM) | level (log10) ([5]; 6700 nM) | level (log10) ([5]; 20000 nM) | level (log10) ([5]; 60000 nM) | level (log10) ([6]; 6700 nM) | level (log10) ([6]; 20000 nM) | level (log10) ([6]; 60000 nM) | level (log10) ([7]; 6700 nM) | level (log10) ([7]; 20000 nM) |
| --- | --- | --- | --- | --- | --- | --- | --- | --- | --- | --- | --- | --- | --- | --- | --- | --- | --- | --- | --- |
| BF4T:MMP-1 | 0.002 ± 0.018 | 0.0095 ± 0.018 | 0.012 ± 0.033 | 0.005 ± 0.0085 | -0.002 ± 0.0071 | 0.0035 ± 0.0021 | -0.002 ± 0.013 | -0.0005 ± 0.00071 | 0.0125 ± 0.0064 | -0.01 ± 0.054 | 0.0085 ± 0.023 | -0.0105 ± 0.04 | -0.0105 ± 0.054 | 0.0005 ± 0.018 | 0.0065 ± 0.029 | 0.0015 ± 0.032 | 0.0095 ± 0.011 | -0.01 ± 0.0085 | 0.0055 ± 0.00071 |
| BF4T:MMP-3 | -0.0125 ± 0.0064 | -0.007 ± 0.0099 | 0.002 ± 0.021 | -0.0095 ± 0.043 | 0.027 ± 0.034 | 0.0755 ± 0.0078 | 0.0015 ± 0.0064 | 0.0105 ± 0.023 | 0.0805 ± 0.067 | 0.0005 ± 0.0035 | -0.015 ± 0.0099 | -0.016 ± 0.031 | -0.008 ± 0.011 | 0 ± 0.017 | 0.0015 ± 0.012 | -0.008 ± 0.014 | 0.0155 ± 0.0078 | -0.0035 ± 0.019 | 0.0255 ± 0.044 |
| BF4T:MMP-9 | -0.001 ± 0.0085 | 0.0065 ± 0.019 | 0.0035 ± 0.013 | 0.0065 ± 0.015 | -0.003 ± 0.0014 | -0.0215 ± 0.005 | 0.003 ± 0.042 | -0.0005 ± 0.019 | 0.0295 ± 0.0021 | -0.0065 ± 0.037 | -0.001 ± 0.017 | -0.0305 ± 0.064 | -0.012 ± 0.033 | 0.0095 ± 0.023 | 0.0095 ± 0.032 | 0.006 ± 0.034 | 0.027 ± 0.028 | -0.002 ± 0.059 | 0.026 ± 0.061 |
| BF4T:PAI-I | 0.01 ± 0.0085 | 0.0095 ± 0.018 | 0.0215 ± 0.026 | 0.005 ± 0.0099 | 0.002 ± 0.011 | 0.009 ± 0.0042 | -0.002 ± 0.0014 | -0.002 ± 0.0028 | 0.0105 ± 0.021 | -0.008 ± 0.013 | -0.0145 ± 0.0021 | 0.0055 ± 0.04 | -0.007 ± 0.017 | 0.0025 ± 0.0064 | 0.0015 ± 0.011 | -0.008 ± 0.014 | 0.014 ± 0.035 | -0.0075 ± 0.0092 | 0.0055 ± 0.012 |
| BF4T:SRB | -0.0055 ± 0.0021 | 0.001 ± 0.0085 | 0.002 ± 0.0014 | 0.0035 ± 0.015 | -0.002 ± 0.013 | -0.0005 ± 0.0078 | 0.0045 ± 0.015 | 0.001 ± 0.0099 | 0.004 ± 0.018 | -0.0055 ± 0.005 | -0.0045 ± 0.005 | -0.0055 ± 0.00071 | -0.003 ± 0.0042 | -0.0005 ± 0.00071 | -0.0105 ± 0.00071 | -0.0135 ± 0.0064 | -0.0105 ± 0.0035 | -0.0045 ± 0.0035 | -0.0005 ± 0.00071 |
| BF4T:tPA | -0.009 ± 0.028 | 0.0335 ± 0.022 | 0.04 ± 0.058 | -0.0045 ± 0.028 | -0.0525 ± 0.0021 | -0.0465 ± 0.016 | -0.0095 ± 0.022 | -0.004 ± 0.021 | 0.017 ± 0.05 | 0.0005 ± 0.023 | -0.015 ± 0.0028 | -0.0155 ± 0.015 | 0.0015 ± 0.032 | 0.012 ± 0.0057 | -0.003 | 0.0005 ± 0.0064 | 0.0105 ± 0.022 | -0.027 ± 0.0028 | -0.017 ± 0.0057 |
| BF4T:uPA | -0.0215 ± 0.032 | 0.023 ± 0.016 | 0.013 ± 0.02 | 0.012 ± 0.0085 | 0.0055 ± 0.00071 | 0.0175 ± 0.0092 | -0.003 ± 0.011 | -0.0025 ± 0.021 | 0.0235 ± 0.00071 | -0.0095 ± 0.00071 | -0.014 ± 0.0085 | -0.013 ± 0.031 | -0.012 ± 0.013 | -0.008 ± 0.0028 | -0.009 ± 0.0085 | -0.012 | 0.0045 ± 0.005 | -0.013 ± 0.013 | 0.009 ± 0.0014 |
